Measurements from article PMC10149367, “The ferroptosis inducing compounds RSL3 and ML162 are not direct inhibitors of GPX4 but of TXNRD1” (Redox Biology, 2023).

Legend:
GPX4 [1] = tested on: GPX4; design: method as in PMID 33812801; details: cited from earlier work
TXNRD1 [2] = biological target: T1, TXNRD1 (Homo sapiens, UniProt Q16881); test: TXNRD1 activity assay, pure enzyme (Fig. 1A); type: biochemical
T1 construct: made in house
T1 sequence (Q16881 1-499 isoform Q16881-5): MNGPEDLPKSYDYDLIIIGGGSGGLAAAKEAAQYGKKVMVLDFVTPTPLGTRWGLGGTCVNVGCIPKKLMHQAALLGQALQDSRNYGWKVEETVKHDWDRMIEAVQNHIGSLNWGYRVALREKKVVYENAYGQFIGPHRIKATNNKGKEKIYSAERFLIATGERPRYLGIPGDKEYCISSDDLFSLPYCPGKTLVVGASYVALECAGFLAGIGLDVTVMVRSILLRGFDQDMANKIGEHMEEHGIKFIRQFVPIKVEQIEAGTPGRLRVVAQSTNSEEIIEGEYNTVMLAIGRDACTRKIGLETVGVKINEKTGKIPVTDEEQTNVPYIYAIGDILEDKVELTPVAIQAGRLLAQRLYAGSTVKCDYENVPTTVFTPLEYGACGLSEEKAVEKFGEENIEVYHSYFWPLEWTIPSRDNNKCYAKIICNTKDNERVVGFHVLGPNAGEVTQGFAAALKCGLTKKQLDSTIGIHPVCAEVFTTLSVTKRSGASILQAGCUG
Experimental: (§1) Recombinant human proteins—Recombinant human selenoprotein GPX and TXNRD isoenzymes as well as recombinant human GR were cloned, expressed, and purified as described previously [[26], [27], [28]].
(§2) TXNRD1 selenite and DTNB assays were run as previously described [[26], [27], [28]]. Dose-response curves and IC50s were generated using Excel and GraphPad Prism. Briefly, initial slopes of NADPH consumption were normalized to DMSO controls and IC50s were calculated using log(inhibitor) vs. response—Variable slope (four parameters).

[3] = tested on: malondialdehyde (MDA) and Ptgs2 mRNA levels; design: method as in PMID 32732975; details: hemochromatosis mouse model; reversed by Ferrostatin-1; cited from earlier work
GPX1 = biological target: T2, GPX1 (Homo sapiens, UniProt P07203); test: GPX1 activity assay, pure enzyme (NADPH consumption, cumene hydroperoxide); type: biochemical; details: for IC50: recombinant GPX1, 30 min preincubation, read-out: IC50 GPX1 inhibition
T2 construct: made in house
T2 sequence (P07203 1-203): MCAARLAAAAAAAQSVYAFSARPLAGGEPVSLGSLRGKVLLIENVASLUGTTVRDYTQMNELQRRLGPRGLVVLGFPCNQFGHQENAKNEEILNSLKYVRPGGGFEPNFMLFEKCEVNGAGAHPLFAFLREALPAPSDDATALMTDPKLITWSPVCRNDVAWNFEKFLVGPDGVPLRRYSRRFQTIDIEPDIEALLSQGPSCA
Experimental: as §1
(§3) Biochemical assays—GPX assays were run as previously described [[26], [27], [28]] in a clear medium-binding 96-well SpectraPlates (PerkinElmer). Briefly, 198 μL of 10 nM GPX1 or 200 nM GPX4 were incubated with 2 μL compounds or DMSO in TES buffer (50 mM Tris-HCl, 2 mM EDTA (pH 7.5), 150 mM NaCl) with BSA at room temperature for 30 min. Then, 40 μL of master mix (100 nM GR, 1 mM GSH, 0.5 mM NADPH in TES buffer) was added. To start the reaction, 10 μL of Cumene hydroperoxide ([0.5 mM] in 50% EtOH) was then added. Absorbance at 340 nm was measured using a Tecan Infinite® M Nano microplate reader every 20 s for 30 min. Four replicates were run, unless otherwise stated.

GPX4 [4] = biological target: T3, GPX4 (Homo sapiens, UniProt P36969); test: GPX4 activity assay, pure enzyme (NADPH consumption, cumene hydroperoxide); type: biochemical; details: for IC50: recombinant GPX4, 30 min preincubation, read-out: IC50 GPX4 inhibition
T3 construct: made in house
T3 sequence (P36969 1-170 isoform P36969-2): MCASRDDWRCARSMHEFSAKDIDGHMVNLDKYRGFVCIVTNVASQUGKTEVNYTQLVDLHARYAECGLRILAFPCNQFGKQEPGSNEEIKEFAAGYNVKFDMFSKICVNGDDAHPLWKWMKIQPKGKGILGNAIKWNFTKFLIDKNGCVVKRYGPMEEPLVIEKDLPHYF
Experimental: as §1, §3

TXNRD1 [5] = biological target: T1, TXNRD1; test: TXNRD1 orthogonal assays (selenite reduction, DTNB reduction; Extended Data Fig. 2); type: biochemical; details: selenite and DTNB assays
Experimental: as §2
Supplementary Data Extended Data Set
(Extended Data Fig. 2A, left panel). Measuring inhibition of TXNRD1 activity, as a complement to the analyses shown in the main text of this article, we also assessed this using two orthogonal approaches: 1. by the measurement of NADPH consumption coupled to direct selenite reduction of TXNRD1, either through the decrease in absorbance at 340 nm or decrease in its fluorescence, and 2. measuring TXNRD1-catalyzed DTNB reduction based upon quantification of TNB- anions absorbing at 412 nm as formed upon TXNRD1-catalyzed reduction of the disulfide in DTNB. Using these assays, we could confirm that the RSL3 inhibition of TXNRD1 was not an artifact due to specific assay conditions, with both RSL3 and ML162 showing complete inhibition of TXNRD1 at the higher end of the concentrations assessed here (2.8 ± 0.9% and 5.8 ± 0.9% remaining activity with just 5 µM of RSL3 and […]
ML162 (Extended Data Fig. 2A, middle and right panels, and 2B). […]
any inhibition of TXNRD1 in any of the assays. […]
µM, respectively (Extended Data Fig. 2B). Like with TRi-1 and TRi-2, inhibition of both TXNRD1 and TXNRD2 by RSL3 and ML162 was essentially dependent on pre-reduction of the enzyme by NADPH in order to yield potent and complete inactivation. Both compounds […]
ML162 in the absence of NADPH and subsequently assayed for activity; however, this could also be due to carry-over of the compounds to the NADPH dependent enzyme activity assay.
Because the reduction step with NADPH reduces a selenenylsulfide at the C-terminal active […]
of the selenolate at the C-terminal active site of the NADPH-reduced enzyme. That some […]
compounds might also bind some other additional site(s) in the enzyme. That notion is further strengthened by the fact that thermostability of TXNRD1 was also affected at higher concentrations of compounds when incubated with the enzyme in the absence of NADPH (see […]
dose-response curve fit to the average of n = 3 technical replicates. […]
well (middle left panel) and 1536-well format (not shown), as well as a DTNB assay (middle […]
TXNRD2 by RSL3 (left panel), ML162 (middle left panel), TRi-1 (middle right panel), and TRi-2 (right panel) are modulated by NADPH pre-treatment; Data are presented as mean ± s.d.; Four-parameter dose-response curve fit to the average of n = 3 technical replicates (n = 2

A549 cells = test: A549 viability in cellular TXNRD1 (RX1) experiments; details: A549, 4 h, Extended Data Fig. 3A
Experimental: Cellular TXNRD1 assay—20,000 or 10,000 A549 cells (for 4 h or 12 h and 24 h compound incubation respectively) were seeded in 96-well plates (microplates, 96 well, F-bottom, black, clear bottom, ViewPlateTM-96 F TC, PerkinElmer), in a total volume of 100 μL full DMEM (supplemented with 10% FBS and 100 nM Na2SeO3). The cells were incubated for 16 h at 37 °C and 5% CO2, followed by media change and addition of indicated compounds at respective concentrations (0.1 μM–20 μM), including 0.6% DMSO. The cells were subsequently incubated for the respective mentioned time, washed once with full DMEM and fresh, full DMEM, containing 75 μM RX1 and 0.75% DMSO, was added and the first fluorescent measurement was conducted immediately (timepoint = 0) using a Tecan Infinite M200 plate reader (ex/em 355/520). To follow the kinetic activation of RX1, a fluorescent measurement was done every hour for 6 h. Between measurements, cells were stored at 37 °C and 5% CO2. As a control, cells treated with compounds, but not with RX1, just the respective DMSO content, were used for background fluorescent. To determine how the cells were viable throughout the RX1 assay, the control cells were used for a viability measurement, using CellTiter-Glo® Luminescent Cell Viability Assay, after the final fluorescent measurement. For final data analysis, raw data was processed using Microsoft Excel and GraphPad Prism. In brief, the slope of the activated RX1 fluorescence increase was in each case calculated and normalized, using the viability measurement of the control cells.
Extended Data Figure 3: A549 cytotoxicity in cellular TXNRD1 experiments following final
A) Cell viability following 4-hour incubation with
compounds; B) Viability following 12-hour incubation with compounds; C) Viability
following 24 -hour incubation with compounds. The cell viability in was in each case measured
using the Cell Quanti-BlueTM Cell Viability Assay Kit and the data are presented as mean ±
s.d. of n = 3 biological replicates, each containing n = 3 technical replicates.

GPX4 [6] = biological target: T3, GPX4; test: nano differential scanning fluorimetry, GPX4; type: binding; details: 100 μM compound; DMSO control 51.7 °C
Experimental: Nano differential scanning fluorimetry—Real-time monitoring of fluorescence emission at 330 nm and 350 nm (excitation wavelength: 280 nm) and backscattering absorbance of GPX4 and TXNRD1 samples in the presence of compound was performed using a NanoTemper Prometheus NT.48 instrument. First, 0.25 mg/mL enzyme was incubated with 100 μM compound or DMSO for 15 min at room temperature. Standard capillaries were used, and temperature was increased from 25 to 95 °C with a ramp rate of 4.0 °C/min. Three biological replicates were carried out for each condition, and their means and standard deviations are depicted.

TXNRD1 [7] = biological target: T4, TXNRD1 (Homo sapiens, UniProt Q16881); test: Cellular TXNRD1 assay with RX1 probe in A549 cells; type: cell-based
T4 construct: RX1 probe that specifically reports upon TXNRD1 enzymatic activity in live cells; endogenous in cells; host or cells: A549
T4 sequence (Q16881 151-649 limits assumed): T1 sequence (Q16881 1-499 isoform Q16881-5)
Experimental: Cellular TXNRD1 assay—20,000 or 10,000 A549 cells (for 4 h or 12 h and 24 h compound incubation respectively) were seeded in 96-well plates (microplates, 96 well, F-bottom, black, clear bottom, ViewPlateTM-96 F TC, PerkinElmer), in a total volume of 100 μL full DMEM (supplemented with 10% FBS and 100 nM Na2SeO3). […] The cells were subsequently incubated for the respective mentioned time, washed once with full DMEM and fresh, full DMEM, containing 75 μM RX1 and 0.75% DMSO, was added and the first fluorescent measurement was conducted immediately (timepoint = 0) using a Tecan Infinite M200 plate reader (ex/em 355/520). To follow the kinetic activation of RX1, a fluorescent measurement was done every hour for 6 h. Between measurements, cells were stored at 37 °C and 5% CO2. As a control, cells treated with compounds, but not with RX1, just the respective DMSO content, were used for background fluorescent. To determine how the cells were viable throughout the RX1 assay, the control cells were used for a viability measurement, using CellTiter-Glo® Luminescent Cell Viability Assay, after the final fluorescent measurement. For final data analysis, raw data was processed using Microsoft Excel and GraphPad Prism. In brief, the slope of the activated RX1 fluorescence increase was in each case calculated and normalized, using the viability measurement of the control cells.

[8] = recombinant selenoprotein, pure enzyme system

SMILES: CC(=O)OC[C@H]1O[C@@H]([S-])[C@H](OC(C)=O)[C@@H](OC(C)=O)[C@@H]1OC(C)=O.CCP(CC)CC.[Au+] [Auranofin, auranofin]
- Effect on GPX4 expression levels (GPX4 [1]): decrease GPX4 expression levels
- IC50 (TXNRD1 [2]; recombinant TXNRD1, Fig. 1A assay conditions, read-out: IC50 TXNRD1 inhibition): ~19 µM
- Hepatic malondialdehyde (MDA) and Ptgs2 mRNA levels [3]: increase in hepatic malondialdehyde (MDA)
- IC50 (GPX1): 4.7 µM

SMILES: Cc1onc(C(=O)N2CCN(C(c3ccc(Cl)cc3)c3ccc(Cl)cc3)CC2)c1[N+](=O)[O-] [ML210]
- Inhibition of GPX4 (GPX4 [4]; [8]): neither RSL3, ML162, nor ML210 inhibited either GPX isoenzyme
- Inhibition of TXNRD1 in any of the assays (TXNRD1 [5]): did not show any inhibition of TXNRD1
- Effect on cell viability at 4 h (A549 cells): no overt effects on viability
- Tm of GPX4 (nanoDSF) (GPX4 [6]): 52.1 °C
- Inhibition of GPX1 (GPX1; [8]): neither RSL3, ML162, nor ML210 inhibited either GPX isoenzyme
- Effect on cellular TXNRD1 activity (RX1) (TXNRD1 [7]; A549, 20 μM): slightly suppressed TXNRD1 activity
- Effect on cellular TXNRD1 activity (RX1) (TXNRD1 [7]; A549, 0.5–1 μM): tendency to increase the TXNRD1 activity
- Effect on cellular TXNRD1 activity (RX1) at 4 h (TXNRD1 [7]; A549, 4 h incubation, RSL3 and ML162 at 1 μM or higher): increase in TXNRD1 activity

SMILES: OC[C@H]1O[C@H]([S-])[C@H](O)[C@@H](O)[C@@H]1O.[Au+] [aurothioglucose]
- Specificity among GPX1, GPX4, GR and TXNRD1 (TXNRD1 [2]; pure enzyme systems, Fig. 1A lower panels): only showed TXNRD1 inhibition

SMILES: O=C(O)CC(S)C(=O)O (centres unmarked) [mercaptosuccinic acid]
- IC50 (GPX4 [4]): < 10 µM
- IC50 (GPX1): < 10 µM

SMILES: [Cl][Hg][Cl] [mercuric chloride]
- IC50 (GPX4 [4]): < 10 µM
- IC50 (GPX1): < 10 µM
